The results in this text go back to US8865894B2, “Oxazolidin-2-one compounds and uses thereof” (Novartis AG, priority 2012, dated 2014).

Molecules are shown by their SMILES.

What all share (format): cell-based
For one series, the system named is A2058 cells. The series can be described thus: Cell cycle G2/M arrest Cytospin assay to detect tubulin binding (off-target). More on the design: key: 0=no condensed DNA observed (indicating no off target activity); 1=(indicating weak off target activity); 2=(indicating medium off target activity); 3=large amount of condensed DNA observed (indicating strong off-target activity). Particulars: 5 μM test item, 24 hours. How it is done:
The off-target effect (evidence of tubulin binding) was measured as follows.
Cell cycle G2/M arrest Cytospin assay to detect tubulin binding (off-target) binding activities of MAPP derivatives: 5×10^5 cells A2058 cells were plated in 6-well cluster, with 2 mL of DMEM (high Glucose containing 1% sodium pyruvate, 1% glutamin and 10% FCS). 18 hours later, the test items were added at a concentration of 5 μM (spiking 1 μL of a 10 mM solution of the test item). 24 hours later, the cells were trypsinized and transferred into a 15 mL conical tube. Cells are then pelleted by centrifugation, and resuspended with PBS/0 (containing 10% FCS). Cells are counted with a CASY counter, and each samples equilibrated to 1×10^6 cells/mL. […] The staining was visually assessed for the presence of condensed DNA and given a score where 0=no condensed DNA observed (indicating no off target activity), 1=(indicating weak off target activity), 2=(indicating medium off target activity), 3=large amount of condensed DNA observed (indicating strong off-target activity).

In series [1] the target is T1, human PI3Kbeta p110 catalytic subunit (Rat-1 pBABEpuro Myr-HA-hp110 beta) (Homo sapiens, UniProt P42338).
T1 construct: Myr (myristoylation signal) (N); HA (N); expressed in transfected cells; host or cells: Rat-1
The series can be described thus: Cellular assay PI3Kbeta (p-Akt(S473) SureFire, Rat-1_PI3beta cells). Conditions: p-Akt(S473), 1 h compound treatment; read-out: Rat1-PI3Kb/ IC50. The source says: (§1) AlphaScreen (Amplified Luminescent Proximity Homogeneous Assay, ALPHA, Perkin Elmer) is a non-radioactive bead-based proximity assay technology to study biomolecular interactions in a homogenous microtiter plate format. The brand name SureFire denotes AlphaScreen assays that are adapted to quantify the phosphorylation of endogenous cellular proteins in cell lysates, by using matched antibody pairs, which consist of an anti-phospho-kinase and an anti-kinase antibody. The assay allows characterization of kinase signaling in cells as well as measurement of kinase inhibitor effects. The AlphaScreen technology provides several advantages over standard assay techniques such as ELISA, as it avoids time-consuming washing procedures and reduces plate handling. Furthermore, it is miniaturizable at least to a 384-well format and provides sensitivity down to the femtomolar range, dependent on the affinity of the antibodies included in the individual AlphaScreen SureFire assay kit. High sensitivity is reached by an intrinsic amplification mechanism, which involves production of singlet oxygen molecules. SureFire assay kits are commercially available for specific targets and include pairs of validated antibodies (PerkinElmer). This report describes common procedures applied for AlphaScreen SureFire assays and respective semi-automated steps for routine kinase inhibitor profiling in cell-based assays.
(§2) The Rat-1 cell lines stably overexpressing activated PI3K class I isoforms Rat-1 pBABEpuro Myr-HA-hp110 delta (Rat-1_PI3Kdelta) and Rat-1 pBABEpuro Myr-HA-hp110alpha (Rat-1_PI3Kalpha) and Rat-1 pBABEpuro Myr-HA-hp110 beta (Rat-1_PI3beta) were prepared as described (Maira S M, Stauffer F, Brueggen J, Furet P, Schnell C, Fritsch C, Brachmann S, Chène P, de Pover A, Schoemaker K, Fabbro D, Gabriel D, Simonen M, Murphy L, Finan P, Sellers W, García-Echeverría C (2008), Mol Cancer Ther. 7:1851-63 and Maira S M, Pecchi S, Brueggen J, Huh K, Schnell C, Fritsch C, Nagel T, Wiesmann M, Brachmann S, Dorsch M, Chène P, Schoemaker K, De Pover A, Menezes D, Fabbro D, Sellers W, García-Echeverría C, Voliva C F (2011), Mol. Cancer Ther., accepted). All cell lines were cultivated in complete growth medium (DMEM high glucose, 10% (v/v) fetal bovine serum, 1% (v/v) MEM NEAA, 10 mM HEPES, 2 mM L-glutamine, puromycin (10 μg/mL for Rat-1_PI3Kdelta and Rat-1_PI3Kalpha, 4 ug/mL for Rat-1_PI3beta), 1% (v/v) Pen/Strep) to 90% confluency at 37° C./5% CO2/90% humidity in a humidified CO2 incubator and were split twice a week.
(§3) The following materials were used for p-AKT(S473) detection in Rat-1 cell lysates: Dulbecco's modified Eagle's medium (DMEM) high glucose (Gibco Invitrogen, Basel, Switzerland, Cat. No. 41965), Heat Inactivated Fetal Bovine Serum, Qualified (HI FBS; Gibco Invitrogen, Basel, Switzerland, Lot. No. 16140), MEM non essential amino acids (NEAA; Gibco Invitrogen, Basel, Switzerland, Cat. No. 11140), HEPES (Gibco Invitrogen, Basel, Switzerland, Cat. No. 15630), Penicillin/Streptomycin (Pen/Strep, 100×; Gibco Invitrogen, Basel, Switzerland, Cat. No. 15140-122), L-Glutamine (Gibco Invitrogen, Basel, Switzerland, Cat. No. 25030), Puromycin (Sigma Aldrich, Buchs, Switzerland, Cat. No. P9620), DMSO (MERCK, Dietikon, Switzerland, Cat. No. 8.02912.2500), H2O, MilliQ-H2O unless otherwise stated (MILLIPORE QGARDOOR1, Millipore, Zug, Switzerland), Bovine serum albumine (BSA; Sigma Aldrich, Buchs, Switzerland Cat. No. A8412), SureFire p-Akt 1/2 (Ser473) Assay Kit (PerkinElmer, Schwerzenbach, Switzerland, Cat. No. TGRAS50K).
(§4) The p-Akt(S473) SureFire assay measures the phosphorylation of endogenous cellular Akt 1/2 at Ser473 in cell lysates. Using Rat-1 cells stably expressing myr-HA-tagged versions of the human PI3Kdelta, PI3Kalpha, or PI3Kbeta p110 catalytic subunit isoforms, the assay was developed as a two-plate protocol in a 384-well format.

A further series deals with T2, mTOR (Mus musculus, UniProt Q9JLN9).
T2 construct: endogenous in cells; host or cells: TSC1-/- MEF (mouse embryo fibroblasts)
The experiment in a line: Cellular assay mTOR (phospho-T389 S6K1 SureFire in TSC1-/- MEF cells). Conditions: TSC1-/- MEF cells; read-out: mTOR S6K(T389)_TSC1ko/ IC50. The source says:
A cell based assay (384-well format) was developed for determination of compound effects on cellular mTOR kinase activity in MEF (mouse embryo fibroblasts) cells derived from mice lacking TSC1 (Tuberosclerosis Complex1) a potent suppressor of mTOR kinase activity. Due to lack of TSC1 the mTOR kinase is constitutively activated resulting in permanent phosphorylation of Thr 389 of S6 kinase 1 (S6K1) which is one of the downstream targets of mTOR.
Using a SureFire Kit that enables to determine the phosphorylation of Thr389 on the S6K1 an assay was developed, validated and implemented in the Alpha-Screen format that allows the quantitative determination of phospho-T389 of S6K1 in cell lysates. […] These were in agreement with those values obtained with the biochemical mTOR ATP-binding assay enabling a quantitative comparison of potency of mTOR inhibitors.
TSC1−/− MEFs cells (Kwiatkowski, D. J., Zhang, H., Bandura, J. L., Heiberger, K. M., Glogauer, M., el-Hashemite, N., and Onda, H. (2002) Hum. Mol. Genet. 11, 525-534) were cultured in DMEM high glucose medium supplemented with 10% FBS (Invitrogen), 2 mM Glutamine and 1% (w/v) Penicillin/Streptomycin at 37° C., 5% CO2.
The SureFire kit for determination of P70S6kinase phosphorylation was purchased from Perkin Elmer (p70S6K p-T389, #TGR70S50K) and the assay was performed according to the instructions of the supplier and according to the generic method for SureFire assays. Shortly, 5 μL cell lysate per well were transferred to 384-well white proxy-plates (for luminescent readout) and mixed with […] and […] (final volume: 12 μL). After 3 h incubation in the dark at RT luminescence was read with the Envision Reader (Perkin Elmer). Untreated cells were used as control (high control) and cells treated with 3 μM BEZ235 were used as low control. The assay window between the signals obtained for the high and the low controls were defined as 100% and compound effects were expressed as percent inhibition. IC50 values were calculated from the dose response curves by graphical extrapolation.

Series [2] concerns the target T3, human PI3Kalpha p110 catalytic subunit (Rat-1 pBABEpuro Myr-HA-hp110alpha) (Homo sapiens, UniProt P42336).
T3 construct: Myr (myristoylation signal) (N); HA (N); expressed in transfected cells; host or cells: Rat-1
The experiment in a line: Cellular assay PI3Kalpha (p-Akt(S473) SureFire, Rat-1_PI3Kalpha cells). Conditions: 1 h compound treatment, read-out: Rat1-PI3Ka/ IC50.
Source text: as §1, §2, §3, §4

In series [3] the target is T4, human PI3Kdelta p110 catalytic subunit (Rat-1 pBABEpuro Myr-HA-hp110 delta) (Homo sapiens, UniProt O00329).
T4 construct: Myr (myristoylation signal) (N); HA (N); expressed in transfected cells; host or cells: Rat-1
The experiment in a line: Cellular assay PI3Kdelta (p-Akt(S473) SureFire, Rat-1_PI3Kdelta cells). Conditions: 1 h compound treatment, read-out: Rat1-PI3Kd/ IC50.
Source text: as §1, §2, §3, §4

T1 sequence (P42338 whole entry): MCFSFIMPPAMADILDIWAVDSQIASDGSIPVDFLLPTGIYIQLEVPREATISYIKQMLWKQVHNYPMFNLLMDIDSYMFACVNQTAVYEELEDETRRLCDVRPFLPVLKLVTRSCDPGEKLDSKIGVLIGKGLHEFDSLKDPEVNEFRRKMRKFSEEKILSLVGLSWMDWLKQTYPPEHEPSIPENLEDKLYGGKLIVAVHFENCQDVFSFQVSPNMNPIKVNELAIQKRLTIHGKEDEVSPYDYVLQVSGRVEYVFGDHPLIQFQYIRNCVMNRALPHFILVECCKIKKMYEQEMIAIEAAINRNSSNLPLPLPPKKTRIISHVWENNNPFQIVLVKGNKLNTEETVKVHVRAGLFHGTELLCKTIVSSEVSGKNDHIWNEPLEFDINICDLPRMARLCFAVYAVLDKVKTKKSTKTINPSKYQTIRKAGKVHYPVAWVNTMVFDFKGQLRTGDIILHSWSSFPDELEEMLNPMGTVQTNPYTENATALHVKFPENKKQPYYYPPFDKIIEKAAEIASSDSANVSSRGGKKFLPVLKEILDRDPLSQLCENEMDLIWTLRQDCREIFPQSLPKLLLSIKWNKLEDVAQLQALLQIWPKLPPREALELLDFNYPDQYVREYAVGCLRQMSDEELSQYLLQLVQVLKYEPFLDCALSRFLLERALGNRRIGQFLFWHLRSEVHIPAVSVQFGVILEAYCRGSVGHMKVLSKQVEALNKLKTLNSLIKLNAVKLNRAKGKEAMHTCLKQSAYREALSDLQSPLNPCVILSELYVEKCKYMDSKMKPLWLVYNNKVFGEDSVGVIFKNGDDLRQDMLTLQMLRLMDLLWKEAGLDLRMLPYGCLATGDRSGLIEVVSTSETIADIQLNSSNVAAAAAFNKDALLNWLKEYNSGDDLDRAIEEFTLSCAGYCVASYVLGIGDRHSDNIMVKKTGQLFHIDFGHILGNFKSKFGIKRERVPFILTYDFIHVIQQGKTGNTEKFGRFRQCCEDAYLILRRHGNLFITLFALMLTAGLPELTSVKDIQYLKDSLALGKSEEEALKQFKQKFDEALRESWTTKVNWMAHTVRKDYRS
T1 sequence (Q63787 whole entry partner): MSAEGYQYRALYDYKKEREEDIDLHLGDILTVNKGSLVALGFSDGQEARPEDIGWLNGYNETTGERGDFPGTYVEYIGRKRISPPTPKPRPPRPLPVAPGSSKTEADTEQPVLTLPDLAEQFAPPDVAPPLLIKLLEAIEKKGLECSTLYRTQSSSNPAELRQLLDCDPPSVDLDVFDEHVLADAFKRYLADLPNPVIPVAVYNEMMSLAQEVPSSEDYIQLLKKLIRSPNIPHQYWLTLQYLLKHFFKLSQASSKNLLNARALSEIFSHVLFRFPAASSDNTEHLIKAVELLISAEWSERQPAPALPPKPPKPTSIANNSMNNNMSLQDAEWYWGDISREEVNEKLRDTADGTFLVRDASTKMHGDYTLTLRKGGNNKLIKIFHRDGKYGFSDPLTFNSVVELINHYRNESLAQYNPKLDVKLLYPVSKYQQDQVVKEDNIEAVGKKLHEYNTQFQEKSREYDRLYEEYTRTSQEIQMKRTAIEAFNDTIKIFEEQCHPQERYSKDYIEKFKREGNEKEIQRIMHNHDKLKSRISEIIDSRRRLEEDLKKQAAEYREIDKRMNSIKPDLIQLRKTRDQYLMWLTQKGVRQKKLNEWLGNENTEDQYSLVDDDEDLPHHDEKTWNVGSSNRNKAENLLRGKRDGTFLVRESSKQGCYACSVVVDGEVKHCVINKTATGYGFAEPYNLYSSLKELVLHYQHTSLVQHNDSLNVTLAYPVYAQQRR
T4 sequence (O00329 whole entry): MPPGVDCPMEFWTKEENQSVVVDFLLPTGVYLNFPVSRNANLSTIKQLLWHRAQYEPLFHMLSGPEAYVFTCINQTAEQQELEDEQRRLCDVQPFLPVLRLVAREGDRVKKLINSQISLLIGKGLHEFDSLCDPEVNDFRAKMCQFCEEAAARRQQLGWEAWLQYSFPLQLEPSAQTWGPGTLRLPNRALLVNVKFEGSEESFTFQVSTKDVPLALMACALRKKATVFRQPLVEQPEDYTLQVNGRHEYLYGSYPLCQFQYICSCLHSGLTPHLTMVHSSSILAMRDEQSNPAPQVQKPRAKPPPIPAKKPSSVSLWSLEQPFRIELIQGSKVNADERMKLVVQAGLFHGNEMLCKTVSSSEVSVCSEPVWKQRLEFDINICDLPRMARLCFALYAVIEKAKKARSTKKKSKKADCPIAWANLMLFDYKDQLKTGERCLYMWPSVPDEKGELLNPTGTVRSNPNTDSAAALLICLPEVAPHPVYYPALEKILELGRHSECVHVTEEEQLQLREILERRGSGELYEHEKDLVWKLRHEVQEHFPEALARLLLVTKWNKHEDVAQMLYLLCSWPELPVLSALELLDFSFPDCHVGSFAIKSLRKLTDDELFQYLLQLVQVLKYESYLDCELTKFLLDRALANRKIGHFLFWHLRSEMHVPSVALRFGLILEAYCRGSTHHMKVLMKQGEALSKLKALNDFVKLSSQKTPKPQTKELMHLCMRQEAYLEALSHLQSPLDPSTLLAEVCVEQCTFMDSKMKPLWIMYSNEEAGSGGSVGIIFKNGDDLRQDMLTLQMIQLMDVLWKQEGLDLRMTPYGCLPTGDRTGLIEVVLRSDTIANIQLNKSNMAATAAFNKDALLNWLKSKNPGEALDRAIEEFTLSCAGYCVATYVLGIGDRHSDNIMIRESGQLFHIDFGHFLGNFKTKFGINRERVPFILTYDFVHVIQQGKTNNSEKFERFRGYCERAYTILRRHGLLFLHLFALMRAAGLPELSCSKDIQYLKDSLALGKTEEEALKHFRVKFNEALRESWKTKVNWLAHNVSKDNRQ
T4 sequence (Q63787 whole entry partner): as the sequence (Q63787 whole entry partner) above
T3 sequence (P42336 whole entry): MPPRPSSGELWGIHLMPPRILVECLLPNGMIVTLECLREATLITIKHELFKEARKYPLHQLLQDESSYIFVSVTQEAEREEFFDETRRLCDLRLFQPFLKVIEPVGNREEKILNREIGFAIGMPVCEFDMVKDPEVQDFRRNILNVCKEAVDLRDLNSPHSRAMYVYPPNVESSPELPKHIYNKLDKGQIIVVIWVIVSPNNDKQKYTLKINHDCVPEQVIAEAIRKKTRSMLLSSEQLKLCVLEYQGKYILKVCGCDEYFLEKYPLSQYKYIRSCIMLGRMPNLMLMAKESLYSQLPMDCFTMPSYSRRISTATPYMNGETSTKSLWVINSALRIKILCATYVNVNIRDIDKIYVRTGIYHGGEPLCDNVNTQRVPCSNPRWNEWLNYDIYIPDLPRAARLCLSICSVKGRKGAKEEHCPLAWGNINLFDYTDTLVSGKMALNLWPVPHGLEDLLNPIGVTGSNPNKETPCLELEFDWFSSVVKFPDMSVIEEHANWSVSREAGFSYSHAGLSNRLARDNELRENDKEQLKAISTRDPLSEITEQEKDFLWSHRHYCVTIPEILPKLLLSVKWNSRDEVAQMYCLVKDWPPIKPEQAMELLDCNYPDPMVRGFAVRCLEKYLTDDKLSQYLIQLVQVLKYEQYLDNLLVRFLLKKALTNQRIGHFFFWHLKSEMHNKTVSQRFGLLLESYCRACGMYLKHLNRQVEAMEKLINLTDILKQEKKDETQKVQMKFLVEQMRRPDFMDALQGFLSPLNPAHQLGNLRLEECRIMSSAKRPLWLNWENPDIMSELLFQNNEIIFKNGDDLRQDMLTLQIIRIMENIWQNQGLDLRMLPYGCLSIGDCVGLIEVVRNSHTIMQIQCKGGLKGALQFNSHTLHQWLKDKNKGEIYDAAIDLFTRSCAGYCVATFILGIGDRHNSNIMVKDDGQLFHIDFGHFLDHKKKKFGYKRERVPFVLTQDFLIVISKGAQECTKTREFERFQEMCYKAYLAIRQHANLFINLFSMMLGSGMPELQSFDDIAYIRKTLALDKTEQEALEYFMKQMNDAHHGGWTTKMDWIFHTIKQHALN
T3 sequence (Q63787 whole entry partner): as the sequence (Q63787 whole entry partner) above

For `CC1(CO)COC(=O)N1c1cc(-c2cnc(N)nc2C(F)(F)F)nc(N2CCOCC2)n1` (single isomer, unassigned) [Example 3B, 3-(2′-amino-2-morpholino-4′-(trifluoromethyl)-4,5′-bipyrimidin-6-yl)-4-(hydroxymethyl)-4-methyloxazolidin-2-one], the “Score (condensed DNA, G2/M arrest; off-target tubulin binding)” value (from here on “Score”) with A2058 cells is recorded as 0. In addition, the IC50 in series [1] amounted to 331 nM; at mTOR, 1110 nM; in series [2], 215 nM; in series [3] it was 172 nM.
For the molecule `Nc1ncc(-c2cc(N3C(=O)OC[C@@H]3CO)nc(N3CCOCC3)n2)c(C(F)(F)F)n1` [Example 7, (S)-3-(2′-Amino-2-morpholin-4-yl-4′-trifluoromethyl-[4,5′]bipyrimidinyl-6-yl)-4-hydroxymethyl-oxazolidin-2-one], the IC50 in series [1] was determined as 132 nM; at mTOR it was 1230 nM; in series [2], 120 nM; in series [3], 70 nM.
For the molecule `Nc1cc(C(F)(F)F)c(-c2cc(N3CCOCC3)nc(N3CCOCC3)n2)cn1` [WO2007/084786 Example 10, reference compound], the “Score” value with A2058 cells came out at 3. Further, the IC50 at mTOR stood at 602 nM.
With `CC1(CO)COC(=O)N1c1cc(-c2cnc(N)nc2C(F)(F)F)nc(N2CCOCC2)n1` (single isomer, unassigned) [Example 3A, 3-(2′-amino-2-morpholino-4′-(trifluoromethyl)-4,5′-bipyrimidin-6-yl)-4-(hydroxymethyl)-4-methyloxazolidin-2-one], the “Score” value in the series with A2058 cells stood at 0. In addition, the IC50 in series [1] was found to be 93 nM; on mTOR, 1570 nM; in series [2], 176 nM; in series [3], 59 nM.
